“Also recorded” adds a separate entry of the source.
Legend:
[1] = test system: eye bank eyes; test: Dye solution instilled by injection into the anterior chamber of eye bank eyes, viewed by naked eye / operating microscope; parameters: species or system human; conditions: for egress of dye from the eye into outflow vessels after injection into the anterior chamber: eye bank eyes, Indigo Carmine 0.004, 0.04, 0.4 wt. %, other ophthalmic dyes for comparison
Description: After an incision is made into the anterior chamber of the eye, a small amount of aqueous humor is expressed and the dye solution is instilled by injection into the anterior chamber. The dye solution is typically left in place for 30 seconds, during which time it stains the anterior capsule of the lens. Excess dye solution is then expelled, usually using a viscoelastic device or flushed out with a balanced salt solution.
Dye solutions containing 0.004 wt. %, 0.04 wt. %, and 0.4 wt. % of Indigo Carmine (prepared by serial dilutions of a 0.4 wt. % Indigo Carmine solution provided by Micro-Tech (Nanjing) Co.) were instilled by injection into the anterior chamber of seven eye bank eyes following the dye solution instillation procedure detailed above.
Special imaging techniques were not required.

[2] = test system: anterior capsule; conditions: cited from earlier work
[3] = test system: ocular structures; conditions: cited from earlier work
[4] = test system: ocular surface squamous neoplastic lesion; test: Topical application of dye to a human eye, slit lamp view of ocular surface squamous neoplastic lesion; format: in vivo
Description: FIG. 8 is a slit lamp view of a human eye wherein an ocular surface squamous neoplastic lesion is delineated after topical application of Indigo Carmine. A blue outline is seen around the perimeter of the white ocular surface squamous neoplastic lesion.
In certain embodiments, the dye delineates eye surface dysplasia and malignancy (ocular surface squamous neoplasia) as has been found in the gut (see, e.g., Oyama, T., “Diagnostic strategies of superficial Barrett's esophageal cancer for endoscopic submucosal dissection”, Dig. Endosc., 2013, 25 Suppl 1:7-12) (see FIG. 7)

[5] = test system: porcine eye; test: Dye injected into the lenticular plain after Small Incision Lenticule Extraction (SMILE) in a porcine eye; conditions: injected along the laser incision planes
Description: FIG. 9A is an operating microscope view of a porcine eye upon which a Small Incision Lenticule Extraction procedure (SMILE) has been carried out. From this view, circular horizontal plains have been cut in the corneal stroma, a superficial smaller diameter cut and a deeper cut of larger diameter. The cuts join in the corneal periphery, thereby creating a lenticule. The arrows show the edge of these cuts.
FIG. 9B is an operating microscope view of a porcine eye upon which a Small Incision Lenticule Extraction procedure (SMILE) has been carried out. Indigo Carmine has been injected into the lenticular plain. The white arrows indicate the complete circular edge of the lenticule.
Minimally invasive corneal procedures for correcting refractive error (see, e.g., Titiyal, J. S., et al., “Learning Curve of Small Incision Lenticule Extraction: Challenges and Complications”, Cornea, 2017, 36:1377-1382) have also been developed in recent years. For example, in Small Incision Lenticule Extraction (SMILE), a lenticule of corneal stroma is created within the stroma using a laser and then removed through a small incision. Occasionally, the cuts that create the lenticule are discontinuous, making lenticule extraction difficult. […]

[6] = test system: protein; conditions: sodium salt; cited from earlier work
[7] = cited from earlier work
[8] = reduced state, fluorescent; cited from earlier work
[9] = anterior chamber perfused with dye solution, sodium salt

In the case of CC1(C)C(/C=C/C=C/C=C/C=C2\N(CCCCS(=O)(=O)O)c3ccc4ccccc4c3C2(C)C)=[N+](CCCCS(=O)(=O)[O-])c2ccc3ccccc3c21 [Indocyanine Green], the “egress of dye from the eye into outflow vessels after injection into the anterior chamber” value (from here on “egress of dye”) [1] is reported as “appears to remain within the eye”.
For Brilliant Blue, the “egress of dye” value [1] was “appears to remain within the eye”.
For Cc1cc(-c2ccc(/N=N/c3c(S(=O)(=O)O)cc4cc(S(=O)(=O)O)cc(N)c4c3O)c(C)c2)ccc1/N=N/c1c(S(=O)(=O)O)cc2cc(S(=O)(=O)O)cc(N)c2c1O [Trypan Blue], the “staining of the trabecular meshwork” value ([1]; anterior chamber perfused with dye solution) is listed as “particularly enhances trabecular meshwork staining”, the “egress of dye” value [1] is listed as “appears to remain within the eye” and the “lowest concentration at which staining can occur” value [2] is listed as 0.0125 wt. %. For the same compound, the “identifying and visualizing anterior lens capsule and trabecular meshwork” value [3] was “effective” and the “identifying or visualizing the canal of Schlemm” value [3] was “not effective”.
For O=C1C(=C2Nc3ccc(S(=O)(=O)[O-])cc3C2=O)Nc2ccc(S(=O)(=O)[O-])cc21.[Na+].[Na+] [Indigo Carmine, 5,5′-indigodisulfonic acid sodium salt], the “staining of the canal of Schlemm” value [1, 9] was “heavily; also recorded: heavy staining”, the “staining of the trabecular meshwork” value [1, 9] was “lightly; also recorded: more lightly stained” and the “visibility of dye in the collector channels on the surface of the eye” value ([1]; at each concentration: 0.004, 0.04 and 0.4 wt. %) was “visible to the naked eye of the surgeon as it appeared in the collector channels on the surface of the eye”. The “staining of the anterior capsule of the lens” value ([1]; capsulorhexis procedure, eye bank eye) was “lightly stained”, the “dye in the deep scleral plexus” value ([1]; conjunctiva reflected away, sodium salt) was “observed in the deep scleral plexus; also recorded: deeper vessels are seen, evidence of the deep scleral plexus” and the “egress of dye” value ([1]; sodium salt) was “appeared in the fine vessels in the conjunctiva adjacent to the limbus, the aqueous veins and the conjunctival venous system; also recorded: some of the dye exiting the eye through the aqueous veins”. The “visibility of dye on the surface of the instilled eye” value ([1]; no special imaging) was “easily visible to the naked eye of the surgeon”, the “delineation of ocular surface squamous neoplastic lesion” value [4] was “delineated” and the “identification of laser incision planes and lenticule edge” value [5] was “possible to identify and determine the extent of these incisions”. For the same compound, the protein binding [6] was “low protein binding; also recorded: relatively reduced”, the solubility in water [7] was “soluble in water” and the absorption maximum [8] was 436 nm. For the same compound, the emission maximum [8] was 528 nm.
In the case of CCN(CC)c1ccc(C(=C2C=CC(=[N+](CC)CC)C=C2)c2cc(O)c(S(=O)(=O)O)cc2S(=O)(=O)O)cc1 [Patent Blue], the “egress of dye” value [1] is reported as “appears to remain within the eye”.

— patent US20220151827A1, “Ophthalmic Compositions, and Ocular Uses Thereof, of Indigo Carmine” (priority 2019, published 2022)
